From patent US20240368194A1, “IRAK4 DEGRADATION AGENT, AND PREPARATION METHOD THEREFOR AND USE THEREOF” (SHANGHAI LEADINGTAC PHARMACEUTICAL CO. LTD., priority 2021, published 2024)

What follows are molecules tested against IRAK4 protein in THP-1 cells (Homo sapiens (Human), UniProt Q9NWZ3) (assay: Degradation of IRAK4 in THP-1 cells, human IRAK4 AlphaLISA assay). Details: 24 h incubation.
Chain of IRAK4 protein in THP-1 cells (Q9NWZ3 whole entry): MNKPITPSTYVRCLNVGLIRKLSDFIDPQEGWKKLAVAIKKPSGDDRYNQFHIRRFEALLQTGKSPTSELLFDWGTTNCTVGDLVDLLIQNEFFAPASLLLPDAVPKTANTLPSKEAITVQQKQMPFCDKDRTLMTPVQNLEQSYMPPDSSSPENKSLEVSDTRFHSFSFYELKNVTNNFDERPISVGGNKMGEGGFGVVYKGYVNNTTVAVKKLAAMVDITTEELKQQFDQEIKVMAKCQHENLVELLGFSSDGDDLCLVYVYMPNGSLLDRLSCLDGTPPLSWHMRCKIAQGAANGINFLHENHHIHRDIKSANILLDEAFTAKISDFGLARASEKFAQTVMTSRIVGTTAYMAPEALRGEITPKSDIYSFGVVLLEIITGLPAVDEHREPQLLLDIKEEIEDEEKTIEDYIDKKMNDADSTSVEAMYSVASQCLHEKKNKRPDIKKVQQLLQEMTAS
Type: cell-based
Experimental: THP-1 cells (Stem Cell Bank, Chinese Academy of Sciences) were inoculated onto a 24-well cell culture plate at 0.95 mL/well, with a cell density of 5×10^5 cells/well. The cell plate was incubated overnight in a 37° C., 5% carbon dioxide incubator, and 50 μL of a solution of a compound in dimethyl sulfoxide was added, such that the final concentration of the compound fell within the range of 0.03-3000 nM. After another 24 h of incubation, cells were collected into 1.5 mL centrifuge tubes and centrifuged at 1000 rpm at 4° C. for 5 min. The cell pellets were washed twice with 1×DPBS. The resuspended cells were lysed with 200 μL of lysis buffer (Western and IP cell lysis buffer (Beyotime), supplemented with 1 mM phenylmethylsulfonyl fluoride and protease inhibitor cocktail (Beyotime)), left to stand on ice for 30 mini, and then centrifuged at 14,000 g at 4° C. for 10 min. The supernatant samples were assayed by Western Blot for IRAK4 protein levels.
The above cell lysates were also tested for IRAK4 degradation using a human IRAK4 AlphaLISA assay kit (PerkinElmer, AL3117C). The method is specifically as follows: 2-μL test samples of cell lysate supernatant were transferred to a white 384-well plate (PerkinElmer, 6007299), and 4 μL of 5× anti-IRAK4 receptor beads (PerkinElmer, final concentration of 10 μg/mL) was then added. The plate was incubated at 23° C. for 30 min. Then 4 μL of 5× biotin-labeled anti-IRAK4 antibody (PerkinElmer, final concentration of 1 nM) was added, and the plate was incubated at 23° C. for 60 min. Finally, 10 μL of 2′ streptavidin-labeled donor beads (final concentration of 40 μg/mL) was added to each well, and the plate was incubated in the dark at 23° C. for 30 min. After the incubation was complete, AlphaLISA signal values were measured on a microplate reader EnVision (PerkinElmer, 2105) in the AlphaScreen standard mode, and IRAK4 concentrations were calculated from these signal values. Then a non-linear curve fitting of logarithmic concentration-inhibition rate was performed using GraphPad Prism 7, and the DC50 and Dmax values of the compound were obtained.
With Cc1nn([C@H]2CC[C@H](CN3CCC4(CC3)CCN(C(=O)c3ccc(Cl)c(N5CCC(=O)NC5=O)c3)CC4)CC2)cc1NC(=O)c1cnn2ccc(N3C[C@H]4C[C@@H]3CO4)nc12 [Example 7, 5-((1R,4R)-2-oxa-5-azabicyclo[2.2.1]heptan-5-yl)-N-(1-((1R,4R)-4-((9-(4-chloro-3-(2,4-dioxotetrahydropyrimidin-1(2H)-yl)benzoyl)-3,9-diazaspiro[5.5]undecan-3-yl)methyl)cyclohexyl)-3-methyl-1H-pyrazol-4-yl)pyrazolo[1,5-a]pyrimidine-3-carboxamide] the DC50 was 148 nM and the Dmax was 76.4%. With COc1cc2nn([C@H]3CC[C@](O)(COCC4CCN(C(=O)c5ccc(Cl)c(N6CCC(=O)NC6=O)c5)CC4)CC3)cc2cc1NC(=O)c1cccc(C(F)(F)F)n1 [Example 8, N-(2-((1S,4S)-4-(((1-(4-chloro-3-(2,4-dioxotetrahydropyrimidin-1(2H)-yl)benzoyl)piperidin-4-yl)methoxy)methyl)-4-hydroxycyclohexyl)-6-methoxy-2H-indol-5-yl)-6-(trifluoromethyl)pyridinecarboxamide] the DC50 was 8.8 nM and the Dmax was 86.8%. For COc1cc2nn([C@H]3CC[C@](O)(COCCC4CCN(C(=O)c5ccc(Cl)c(N6CCC(=O)NC6=O)c5)CC4)CC3)cc2cc1NC(=O)c1cccc(C(F)(F)F)n1 [Example 10], the DC50 was 2.8 nM and the Dmax was 99.3%. CN(CCC1CCN(C(=O)c2ccc(Cl)c(N3CCC(=O)NC3=O)c2)CC1)C[C@H]1CC[C@H](n2cc(NC(=O)c3cnn4ccc(N5C[C@H]6C[C@@H]5CO6)nc34)c(C(F)F)n2)CC1 [Example 11, 5-((1R,4R)-2-oxa-5-azabicyclo[2.2.1]heptan-5-yl)-N-(1-((1R,4R)-4-(((2-(1-(4-chloro-3-(2,4-dioxotetrahydropyrimidin-1(2H)-yl)benzoyl)piperidin-4-yl)ethyl)(methyl)amino)methyl)cyclohexyl)-3-(difluoromethyl)-1H-pyrazol-4-yl)pyrazolo[1,5-a]pyrinidine-3-carboxamide] showed a DC50 of 12.7 nM and a Dmax of 90.7%. Molecule COc1cc2nn([C@H]3CC[C@](O)(CN(C)CC4CCC5(CC4)CCN(C(=O)c4ccc(Cl)c(N6CCC(=O)NC6=O)c4)CC5)CC3)cc2cc1NC(=O)c1cccc(C(F)(F)F)n1 [Example 17] has a DC50 of 10.4 nM and a Dmax of 99.4%. For COc1cc2nn([C@H]3CC[C@@](COCCC4CCN(C(=O)c5ccc(Cl)c(N6CCC(=O)NC6=O)c5)CC4)(OC)CC3)cc2cc1NC(=O)c1cccc(C(F)(F)F)n1 [Example 22, N-(2-((1S,4S)-4-((2-(1-(4-chloro-3-(2,4-dioxotetrahydropyrimidin-1(2H)-yl)benzoyl)piperidin-4-yl)ethoxy)methyl)-4-methoxycyclohexyl)-6-methoxy-2H-indazol-5-yl)-6-(trifluoromethyl)pyridinecarboxamide], the DC50 was 3.42 nM and the Dmax was 96.5%. O=C1CCN(c2cc(C(=O)N3CCC4(CCN(C[C@H]5CC[C@H](n6cc(NC(=O)c7cnn8ccc(N9CCOCC9)nc78)c(C(F)F)n6)CC5)CC4)CC3)ccc2Cl)C(=O)N1 [Example 29, N-(1-((1R,4R)-4-((9-(4-chloro-3-(2,4-dioxotetrahydropyrimidin-1(2H)-yl)benzoyl)-3,9-diazaspiro[5.5]undecan-3-yl)methyl)cyclohexyl)-3-(difluoromethyl)-1H-pyrazol-4-yl)-5-morpholinopyrazolo[1,5-a]pyrimidine-3-carboxamide] showed a DC50 of 2.75 nM and a Dmax of 98.5%. For CN(CCC1CCN(C(=O)c2ccc(Cl)c(N3CCC(=O)NC3=O)c2)CC1)C[C@H]1CC[C@H](n2cc(NC(=O)c3cnn4ccc(N5CCOCC5)nc34)c(C(F)F)n2)CC1 [Example 30, N-(1-((1R,4R)-4-(((2-(1-(4-chloro-3-(2,4-dioxotetrahydropyrimidin-1(2H)-yl)benzoyl)piperidin-4-yl)ethyl)(methyl)amino)methyl)cyclohexyl)-3-(difluoromethyl)-1H-pyrazol-4-yl)-5-morpholinopyrazolo[1,5-a]pyrimidine-3-carboxamide], the DC50 was 5.23 nM and the Dmax was 90.1%. Molecule CN(CCC1CCN(C(=O)c2ccc(Cl)c(N3CCC(=O)NC3=O)c2)CC1)C[C@H]1CC[C@H](n2cc(NC(=O)c3cnn4ccc(N5CC6CCC(C5)O6)nc34)c(C(F)F)n2)CC1 [Example 31, 5-(8-oxa-3-azabicyclo[3.2.1]octan-3-yl)-N-(1-((1R,4R)-4-(((2-(1-(4-chloro-3-(2,4-dioxotetrahydropyrimidin-1(2H)-yl)benzoyl)piperidin-4-yl)ethyl)(methyl)amino)methyl)cyclohexyl)-3-(difluoromethyl)-1H-pyrazol-4-yl)pyrazolo[1,5-a]pyrimidine-3-carboxamide] has a DC50 of 6.1 nM and a Dmax of 91.1%. With O=C1CCN(c2cc(C(=O)N3CCC4(CCN(C[C@H]5CC[C@H](n6cc(NC(=O)c7cnn8ccc(N9CC%10CCC(C9)O%10)nc78)c(C(F)F)n6)CC5)CC4)CC3)ccc2Cl)C(=O)N1 [Example 32, 5-(8-oxa-3-azabicyclo[3.2.1]octan-3-yl)-N-(1-((1R,4R)-4-((9-(4-chloro-3-(2,4-dioxotetrahydropyrimidin-1(2H)-yl)benzoyl)-3,9-diazaspiro[5.5]undecan-3-yl)methyl)cyclohexyl)-3-(difluoromethyl)-1H-pyrazol-4-yl)pyrazolo[1,5-a]pyrimidine-3-carboxamide] the DC50 was 3.46 nM and the Dmax was 90.5%. For COc1ccc(C(=O)N2CCC(CCN(C)C[C@H]3CC[C@H](n4cc(NC(=O)c5cnn6ccc(N7CCC[C@H](O)C7)nc56)c(C(F)F)n4)CC3)CC2)cc1N1CCC(=O)NC1=O [Example 35, N-(3-(difluoromethyl)-1-((1R,4S)-4-(((2-(1-(3-(2,4-dioxotetrahydropyrimidin-1(2H)-yl)-4-methoxybenzoyl)piperidin-4-yl)ethyl)(methyl)amino)methyl)cyclohexyl)-1H-pyrazol-4-yl)-5-((S)-3-hydroxypiperidin-1-yl)pyrazolo[1,5-a]pyrimidine-3-carboxamide], the DC50 was 0.78 nM and the Dmax was 100%. COc1ccc(C(=O)N2CCC(CCN(C)C[C@H]3CC[C@H](n4cc(NC(=O)c5cnn6ccc(N7CCC[C@H](N)C7)nc56)c(C(F)F)n4)CC3)CC2)cc1N1CCC(=O)NC1=O [Example 36, 5-((S)-3-aminopiperidin-1-yl)-N-(3-(difluoromethyl)-1-((1R,4S)-4-(((2-(1-(3-(2,4-dioxotetrahydropyrimidin-1(2H)-yl)-4-methoxybenzoyl)piperidin-4-yl)ethyl)(methyl)amino)methyl)cyclohexyl)-1H-pyrazol-4-yl)pyrazolo[1,5-a]pyrimidine-3-carboxamide] was tested, and the DC50 was 3.45 nM and the Dmax was 96%. COc1ccc(C(=O)N2CCC(CCN(C)C[C@H]3CC[C@H](n4cc(NC(=O)c5cnn6ccc(N7CC8(COC8)C7)nc56)c(C(F)F)n4)CC3)CC2)cc1N1CCC(=O)NC1=O [Example 39, N-(3-(difluoromethyl)-1-((1R,4R)-4-(((2-(1-(3-(2,4-dioxotetrahydropyrimidin-1(2H)-yl)-4-methoxybenzoyl)piperidin-4-yl)ethyl)(methyl)amino)methyl)cyclohexyl)-1H-pyrazol-4-yl)-5-(2-oxa-6-azaspiro[3.3]heptan-6-yl)pyrazolo[1,5-a]pyrimidine-3-carboxamide] was tested, and the DC50 was 10.9 nM and the Dmax was 93.9%. Work on Cc1ccc(C(=O)N2CCC3(CCN(C[C@H]4CC[C@H](n5cc(NC(=O)c6cnn7ccc(N8CCC[C@H](O)C8)nc67)c(C(F)F)n5)CC4)CC3)CC2)cc1N1CCC(=O)NC1=O [Example 45, N-(3-(difluoromethyl)-1-((1R,4S)-4-((9-(3-(2,4-dioxotetrahydropyrimidin-1(2H)-yl)-4-methylbenzoyl)-3,9-diazaspiro[5.5]undecan-3-yl)methyl)cyclohexyl)-1H-pyrazol-4-yl)-5-((S)-3-hydroxypiperidin-1-yl)pyrazolo[1,5-a]pyrimidine-3-carboxamide] yielded a DC50 of 0.82 nM and a Dmax of 96.2%. With CN(CCC1CCN(C(=O)c2ccc(Cl)c(N3CCC(=O)NC3=O)c2)CC1)C[C@H]1CC[C@H](n2cc(NC(=O)c3cnn4ccc(N5CCC[C@H](N)C5)nc34)c(C(F)F)n2)CC1 [Example 47, 5-((S)-3-aminopiperidin-1-yl)-N-(1-((1R,4S)-4-(((2-(1-(4-chloro-3-(2,4-dioxotetrahydropyrimidin-1(2H)-yl)benzoyl)piperidin-4-yl)ethyl)(methyl)amino)methyl)cyclohexyl)-3-(difluoromethyl)-1H-pyrazol-4-yl)pyrazolo[1,5-a]pyrimidine-3-carboxamide] the DC50 was 4.84 nM and the Dmax was 99%.
